System: Escherichia coli ATCC 25922
Format: cell-based
Details: wild-type E. coli ATCC 25922; MHB pH 7.4, 5×10^5 CFU/mL, 37°C, 18–20 h
Method: All experiments were performed with Escherichia coli ATCC 25922. Stock cultures of the wild-type strain and lineage isolates were stored at –80°C in 4% (w/v) glycerol, 0.5% (w/v) glucose, 2% (w/v) skimmed milk powder and 3% (w/v) tryptone soy powder. Lineage populations were frozen at –80°C in 50% (w/v) glycerol. All experiments were performed at 37°C. Experiments were carried out in cation-adjusted Mueller Hinton II broth (MHB) (Becton Dickinson 212322) adjusted to pH 7.4 or in 1% (w/v) peptone (Becton Dickinson 211677) for MIC determination of natural AMPs. Brain Heart Infusion (BHI) (CM1135) with agar (VWR 20768.292) 1.5% as gelling agent was used throughout for colony plating.
MIC was determined by using the micro-dilution method according to guidelines of the Clinical and Laboratory Standards Institute. Peptidomimetic 1 and erythromycin 1∶2 serial dilutions were prepared from 1024 µg/mL stock solutions to give a final range of 512-0.5 µg/mL in the wells. Ampicillin 1∶2 serial dilutions were prepared from a 256 µg/mL stock solution to give a final range of 128-0.13 µg/mL in the wells. Polymyxin B and gentamicin 1∶2 serial dilutions were prepared from a 64 µg/mL stock solution to give a final range of 32-0.03 µg/mL in the wells. Also, 1∶2 serial dilutions of the AMPs KR-12, IsCTp, melittin and PEP-1-K were prepared from 64 µg/mL stock solutions to give a final range of 32-0.03 µg/mL in the wells; however this was performed in 1% peptone instead of in MHB since activity was drastically diminished in the latter (not shown).
The population lineages were tested for their susceptibility towards peptidomimetic 1, polymyxin B, gentamicin and ampicillin. Single-culture isolates selected from these populations were additionally tested against peptidomimetic 1, polymyxin B, erythromycin and the five reference AMPs. To estimate the level of cross-resistance to closely related peptidomimetics, MIC determinations were performed for peptidomimetics 2 and 3 (Figure 1) towards selected isolates. […]

Structure (SMILES): CC(=O)N[C@@H](CCCCNC(=N)N)C(=O)N(CCC(=O)N[C@@H](CCCCNC(=N)N)C(=O)N(CCC(=O)N[C@@H](CCCCNC(=N)N)C(=O)N(CCC(=O)N[C@@H](CCCCNC(=N)N)C(=O)N(CCC(=O)N[C@@H](CCCCNC(=N)N)C(=O)N(CCC(=O)N[C@@H](CCCCNC(=N)N)C(=O)N(CCC(N)=O)[C@@H](C)c1ccccc1)[C@@H](C)c1ccccc1)[C@@H](C)c1ccccc1)[C@@H](C)c1ccccc1)[C@@H](C)c1ccccc1)[C@@H](C)c1ccccc1 [peptidomimetic 1]
- wt MIC: 8 µg/mL

From article PMC3764026, “Adaptive Evolution of Escherichia coli to an α-Peptide/β-Peptoid Peptidomimetic Induces Stable Resistance” (PLoS ONE, 2013)
